Assay results as given in paper PMC7017090, “Repaglinide Silences the FOXO3/Lumican Axis and Represses the Associated Metastatic Potential of Neuronal Cancer Cells” (Cells, 2019).

B1: FoxP3 oligonucleotide (FAM) (dsDNA)
DNA 1: AGCAAAGTTGTTTTTGATAATG
DNA 2: CATTATCAAAAACAACTTTGCT

Columns and labels:
FOXO3 = FOXO3 (Homo sapiens, UniProt O43524); assay: fluorescence polarization displacement of IRE-FAM oligonucleotide from recombinant FOXO3-DBD (Ki calculated from IC50 […]); supported by FAM-EMSA; type: binding
Chain of FOXO3 (O43524 156-269): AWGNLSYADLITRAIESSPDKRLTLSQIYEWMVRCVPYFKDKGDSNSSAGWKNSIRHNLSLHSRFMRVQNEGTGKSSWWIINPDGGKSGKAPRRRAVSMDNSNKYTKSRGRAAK

FOXO3-DBD = FOXO3-DBD (human, UniProt O43524 156-269); assay: EMSA; 1 uM protein, 100 nM DNA; 'high affinity'; Not stated; FPA and FAM-EMSA as described in ref 24; details: protein: recombinant; blunt
Chain of FOXO3-DBD (O43524 156-269): as above

Molecule | Ki (FOXO3) [µM] | binding result (FOXO3-DBD)
CCOc1cc(CC(=O)N[C@@H](CC(C)C)c2ccccc2N2CCCCC2)ccc1C(=O)O [RPG, repaglinide] | 24.9 | –
B1 | – | binds
